± gives the standard deviation of the averaged measurements.
Columns and labels:
Details in all cases: exposure time: 72 h
E13 [1] = patient-derived glioblastoma stem cells of classical subtype; experiment: surviving fraction (nuclei count normalised to DMSO); higher = more cells surviving (less toxic)
E21 [2] = patient-derived glioblastoma stem cells of mesenchymal subtype; experiment: as above
E28 [3] = patient-derived glioblastoma stem cells of classical subtype; experiment: as above
E31 [4] = patient-derived glioblastoma stem cells of proneural subtype; experiment: as above
E34 [5] = patient-derived glioblastoma stem cells of proneural subtype; experiment: as above
E57 [6] = patient-derived glioblastoma stem cells of mesenchymal subtype; experiment: as above
FT3469 [7] = normal neural stem cell line; experiment: as above
E13 [8] = experiment: phenotypic distance (Euclidean, principal components) from DMSO controls (arbitrary units); higher = stronger morphological change
E21 [9] = experiment: as above
E28 [10] = experiment: as above
E31 [11] = experiment: as above
E34 [12] = experiment: as above
E57 [13] = experiment: as above
FT3469 [14] = experiment: as above
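Throughout, for phenotypic distance (Euclidean, principal components) from DMSO controls: cell Painting imaging in 384-well plates, CellProfiler features reduced to at least 20 principal components, Euclidean distance versus same-plate DMSO vehicle wells (0.1% v/v), median over six images per well.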
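Throughout, for surviving fraction (nuclei count normalised to DMSO): nuclei counted by high-content imaging of Hoechst-stained cells in laminin-coated 384-well plates, relative to 0.1% DMSO vehicle wells, with staurosporine as cell-death control.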

C[C@]12CC[C@H](O)C[C@H]1CC[C@@H]1[C@@H]2C[C@@H](O)[C@]2(C)[C@@H](C3=CC(=O)OC3)CC[C@]12O [Digoxigenin]
Details | phenotypic distance | surviving fraction
E13 [1], 4.1 nM | – | 0.965
E13 [1], 12.3 nM | – | 1.05
E13 [1], 37 nM | – | 0.962
E13 [1], 111.1 nM | – | 0.89
E13 [1], 333.3 nM | – | 0.662
E13 [1], 1000 nM | – | 0.426
E13 [1], 3000 nM | – | 0.354
E13 [8], 4.1 nM | 0.193 | –
E13 [8], 12.3 nM | 0.571 | –
E13 [8], 37 nM | 0.503 | –
E13 [8], 111.1 nM | 0.911 | –
E13 [8], 333.3 nM | 2.63 | –
E13 [8], 1000 nM | 3.73 | –
E13 [8], 3000 nM | 4.86 | –
E21 [2], 4.1 nM | – | 0.996
E21 [2], 12.3 nM | – | 0.951
E21 [2], 37 nM | – | 0.891
E21 [2], 111.1 nM | – | 0.887
E21 [2], 333.3 nM | – | 0.582
E21 [2], 1000 nM | – | 0.473
E21 [2], 3000 nM | – | 0.331
E21 [9], 4.1 nM | 0.486 | –
E21 [9], 12.3 nM | 0.815 | –
E21 [9], 37 nM | 0.94 | –
E21 [9], 111.1 nM | 1.64 | –
E21 [9], 333.3 nM | 3.18 | –
E21 [9], 1000 nM | 3.95 | –
E21 [9], 3000 nM | 6.35 | –
E28 [3], 4.1 nM | – | 1.01
E28 [3], 12.3 nM | – | 1.11
E28 [3], 37 nM | – | 0.883
E28 [3], 111.1 nM | – | 0.991
E28 [3], 333.3 nM | – | 1.02
E28 [3], 1000 nM | – | 0.998
E28 [3], 3000 nM | – | 0.537
E28 [10], 4.1 nM | 0.383 | –
E28 [10], 12.3 nM | 0.587 | –
E28 [10], 37 nM | 0.46 | –
E28 [10], 111.1 nM | 0.569 | –
E28 [10], 333.3 nM | 0.59 | –
E28 [10], 1000 nM | 1.04 | –
E28 [10], 3000 nM | 2.24 | –
E31 [4], 4.1 nM | – | 1.01
E31 [4], 12.3 nM | – | 0.832
E31 [4], 37 nM | – | 0.916
E31 [4], 111.1 nM | – | 0.996
E31 [4], 333.3 nM | – | 0.946
E31 [4], 1000 nM | – | 0.603
E31 [4], 3000 nM | – | 0.348
E31 [11], 4.1 nM | 0.558 | –
E31 [11], 12.3 nM | 0.764 | –
E31 [11], 37 nM | 0.809 | –
E31 [11], 111.1 nM | 0.828 | –
E31 [11], 333.3 nM | 1.83 | –
E31 [11], 1000 nM | 3.63 | –
E31 [11], 3000 nM | 4.82 | –
E34 [5], 4.1 nM | – | 0.86
E34 [5], 12.3 nM | – | 0.942
E34 [5], 37 nM | – | 0.861
E34 [5], 111.1 nM | – | 1.04
E34 [5], 333.3 nM | – | 0.767
E34 [5], 1000 nM | – | 0.63
E34 [5], 3000 nM | – | 0.568
E34 [12], 4.1 nM | 0.591 | –
E34 [12], 12.3 nM | 0.506 | –
E34 [12], 37 nM | 0.531 | –
E34 [12], 111.1 nM | 0.98 | –
E34 [12], 333.3 nM | 1.57 | –
E34 [12], 1000 nM | 3.22 | –
E34 [12], 3000 nM | 4.52 | –
E57 [6], 4.1 nM | – | 0.942
E57 [6], 12.3 nM | – | 0.969
E57 [6], 37 nM | – | 1.05
E57 [6], 111.1 nM | – | 0.975
E57 [6], 333.3 nM | – | 0.663
E57 [6], 1000 nM | – | 0.346
E57 [6], 3000 nM | – | 0.238
E57 [13], 4.1 nM | 0.552 | –
E57 [13], 12.3 nM | 1.14 | –
E57 [13], 37 nM | 0.391 | –
E57 [13], 111.1 nM | 0.908 | –
E57 [13], 333.3 nM | 3.27 | –
E57 [13], 1000 nM | 4.63 | –
E57 [13], 3000 nM | 6.24 | –
FT3469 [7], 4.1 nM | – | 0.774
FT3469 [7], 12.3 nM | – | 0.984
FT3469 [7], 37 nM | – | 1.03
FT3469 [7], 111.1 nM | – | 0.968
FT3469 [7], 333.3 nM | – | 0.801
FT3469 [7], 1000 nM | – | 0.652
FT3469 [7], 3000 nM | – | 0.62
FT3469 [14], 4.1 nM | 1 | –
FT3469 [14], 12.3 nM | 1.82 | –
FT3469 [14], 37 nM | 0.883 | –
FT3469 [14], 111.1 nM | 1.27 | –
FT3469 [14], 333.3 nM | 2.84 | –
FT3469 [14], 1000 nM | 4.38 | –
FT3469 [14], 3000 nM | 3.34 | –

CC(=O)c1cnc2ccc(-c3cc(Cl)c(O)c(Cl)c3)nc2c1N[C@H]1CC[C@H](CN(C)C)CC1 [OTSSP167]
Details | phenotypic distance | surviving fraction
E13 [1], 0.4 nM | – | 0.96 ± 0.06
E13 [1], 1.2 nM | – | 0.925 ± 0.12
E13 [1], 3.7 nM | – | 0.908 ± 0.017
E13 [1], 11.1 nM | – | 0.685 ± 0.053
E13 [1], 33.3 nM | – | 0.422 ± 0.024
E13 [1], 100 nM | – | 0.205 ± 0.014
E13 [1], 300 nM | – | 0.1423 ± 0.00064
E13 [8], 0.4 nM | 1.66 ± 1 | –
E13 [8], 1.2 nM | 1.67 ± 0.18 | –
E13 [8], 3.7 nM | 2.455 ± 0.011 | –
E13 [8], 11.1 nM | 3.33 ± 0.64 | –
E13 [8], 33.3 nM | 6.59 ± 0.11 | –
E13 [8], 100 nM | 7.76 ± 0.18 | –
E13 [8], 300 nM | 8.64 ± 0.25 | –
E21 [2], 0.4 nM | – | 0.988 ± 0.14
E21 [2], 1.2 nM | – | 1.09 ± 0.052
E21 [2], 3.7 nM | – | 0.945 ± 0.04
E21 [2], 11.1 nM | – | 0.737 ± 0.1
E21 [2], 33.3 nM | – | 0.546 ± 0.034
E21 [2], 100 nM | – | 0.317 ± 0.0045
E21 [2], 300 nM | – | 0.161 ± 0.039
E21 [9], 0.4 nM | 1.7 ± 0.33 | –
E21 [9], 1.2 nM | 2.06 ± 0.15 | –
E21 [9], 3.7 nM | 2.41 ± 0.065 | –
E21 [9], 11.1 nM | 2.49 ± 0.12 | –
E21 [9], 33.3 nM | 4.22 ± 0.35 | –
E21 [9], 100 nM | 4.87 ± 0.3 | –
E21 [9], 300 nM | 6.25 ± 0.65 | –
E28 [3], 0.4 nM | – | 1.04 ± 0.15
E28 [3], 1.2 nM | – | 1.21 ± 0.084
E28 [3], 3.7 nM | – | 1.16 ± 0.014
E28 [3], 11.1 nM | – | 0.994 ± 0.16
E28 [3], 33.3 nM | – | 0.575 ± 0.0076
E28 [3], 100 nM | – | 0.247 ± 0.07
E28 [3], 300 nM | – | 0.233 ± 0.032
E28 [10], 0.4 nM | 1.32 ± 0.36 | –
E28 [10], 1.2 nM | 1.49 ± 0.21 | –
E28 [10], 3.7 nM | 1.75 ± 0.072 | –
E28 [10], 11.1 nM | 2.62 ± 0.37 | –
E28 [10], 33.3 nM | 4.37 ± 0.37 | –
E28 [10], 100 nM | 4.36 ± 0.64 | –
E28 [10], 300 nM | 4.295 ± 0.011 | –
E31 [4], 0.4 nM | – | 0.94 ± 0.024
E31 [4], 1.2 nM | – | 0.896 ± 0.042
E31 [4], 3.7 nM | – | 1.02 ± 0.073
E31 [4], 11.1 nM | – | 0.913 ± 0.055
E31 [4], 33.3 nM | – | 0.59 ± 0.046
E31 [4], 100 nM | – | 0.196 ± 0.02
E31 [4], 300 nM | – | 0.0607 ± 0.0042
E31 [11], 0.4 nM | 1.92 ± 0.57 | –
E31 [11], 1.2 nM | 2.29 ± 0.21 | –
E31 [11], 3.7 nM | 2.8 ± 0.15 | –
E31 [11], 11.1 nM | 2.81 ± 0.06 | –
E31 [11], 33.3 nM | 2.5 ± 0.18 | –
E31 [11], 100 nM | 5.33 ± 0.78 | –
E31 [11], 300 nM | 7.69 ± 2.1 | –
E34 [5], 0.4 nM | – | 1 ± 0.055
E34 [5], 1.2 nM | – | 0.983 ± 0.031
E34 [5], 3.7 nM | – | 0.947 ± 0.15
E34 [5], 11.1 nM | – | 0.748 ± 0.15
E34 [5], 33.3 nM | – | 0.535 ± 0.083
E34 [5], 100 nM | – | 0.567 ± 0.021
E34 [5], 300 nM | – | 0.384 ± 0.061
E34 [12], 0.4 nM | 1.46 ± 0.39 | –
E34 [12], 1.2 nM | 1.96 ± 1 | –
E34 [12], 3.7 nM | 1.73 ± 0.11 | –
E34 [12], 11.1 nM | 2.43 ± 0.65 | –
E34 [12], 33.3 nM | 3.89 ± 0.15 | –
E34 [12], 100 nM | 2.89 ± 0.067 | –
E34 [12], 300 nM | 2.9 ± 0.41 | –
E57 [6], 0.4 nM | – | 1.43 ± 0.017
E57 [6], 1.2 nM | – | 1.46 ± 0.088
E57 [6], 3.7 nM | – | 1.48 ± 0.057
E57 [6], 11.1 nM | – | 1.23 ± 0.19
E57 [6], 33.3 nM | – | 0.626 ± 0.052
E57 [6], 100 nM | – | 0.171 ± 0.0094
E57 [6], 300 nM | – | 0.108 ± 0.014
E57 [13], 0.4 nM | 1.81 ± 0.58 | –
E57 [13], 1.2 nM | 2.24 ± 0.063 | –
E57 [13], 3.7 nM | 2.97 ± 0.38 | –
E57 [13], 11.1 nM | 3.48 ± 0.47 | –
E57 [13], 33.3 nM | 4.61 ± 0.12 | –
E57 [13], 100 nM | 7.8122 ± 0.0049 | –
E57 [13], 300 nM | 5.83 ± 0.19 | –
FT3469 [7], 0.4 nM | – | 1.13 ± 0.11
FT3469 [7], 1.2 nM | – | 1.2 ± 0.052
FT3469 [7], 3.7 nM | – | 1.08 ± 0.096
FT3469 [7], 11.1 nM | – | 0.783 ± 0.13
FT3469 [7], 33.3 nM | – | 0.638 ± 0.024
FT3469 [7], 100 nM | – | 0.502 ± 0.022
FT3469 [7], 300 nM | – | 0.45 ± 0.087
FT3469 [14], 0.4 nM | 2.21 ± 0.61 | –
FT3469 [14], 1.2 nM | 2.77 ± 0.063 | –
FT3469 [14], 3.7 nM | 3.26 ± 0.47 | –
FT3469 [14], 11.1 nM | 3.53 ± 0.41 | –
FT3469 [14], 33.3 nM | 4.08 ± 0.32 | –
FT3469 [14], 100 nM | 4.14 ± 0.28 | –
FT3469 [14], 300 nM | 3.137 ± 0.02 | –

From the supplement of paper PMC13207355
